Test results as given in US4703058A, “β-methylene furanethanamines and use as anti-hypertensive agents” (Merrell Dow Pharmaceuticals Inc., priority 1986, dated 1987).

Experiments:
[1] = target: T1, dopamine β-hydroxylase (DBH) (Bos taurus, UniProt P15101); experiment: DBH inhibitory activity - in vitro (time-dependent inactivation; tyramine as substrate, oxygen uptake by polarographic electrode); assay type: biochemical
T1 sequence (P15101 1-610): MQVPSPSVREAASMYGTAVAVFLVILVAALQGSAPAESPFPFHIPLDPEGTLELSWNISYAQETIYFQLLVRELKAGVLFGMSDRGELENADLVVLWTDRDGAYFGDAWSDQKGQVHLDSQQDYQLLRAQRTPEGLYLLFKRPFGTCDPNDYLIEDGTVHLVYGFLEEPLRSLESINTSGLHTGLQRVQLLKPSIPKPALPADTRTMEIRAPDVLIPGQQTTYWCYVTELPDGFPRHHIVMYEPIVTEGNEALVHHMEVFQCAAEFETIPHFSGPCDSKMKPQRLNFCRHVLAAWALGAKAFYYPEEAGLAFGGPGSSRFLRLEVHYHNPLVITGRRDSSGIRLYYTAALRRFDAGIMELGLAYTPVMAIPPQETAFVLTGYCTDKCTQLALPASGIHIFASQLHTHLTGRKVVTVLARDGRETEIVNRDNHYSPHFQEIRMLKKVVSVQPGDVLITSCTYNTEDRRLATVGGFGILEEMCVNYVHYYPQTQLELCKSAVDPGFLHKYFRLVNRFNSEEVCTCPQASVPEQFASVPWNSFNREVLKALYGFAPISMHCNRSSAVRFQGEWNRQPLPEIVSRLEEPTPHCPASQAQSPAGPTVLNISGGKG
Experimental: The dopamine β-hydroxylase inhibitory properties of the compounds of this invention can readily be determined by standard and well known procedures such as those procedures set forth in U.S. Pat. No. 4,415,191. For example, determination of whether the DBH inhibition allows time-dependent kinetics is exemplified by the procedure wherein enzymatic oxygenation by DBH is determined in aqueous solution in the presence of molecular oxygen, an electron donor such as ascorbate, and the necessary cofactors for the enzyme at a pH of 5 and a temperature of 20°-40° C., preferrably 37° C. The test compound is added at the desired concentration, and the system is incubated. At different time intervals, aliquots are taken and DBH activity is measured using tyramine as the substrate and the reaction followed by measuring the oxygen uptake using a polarographic electrode and an oxygen monitor by the method of S. May et al., J. Biol. Chem. 256, 2258 (1981). The inhibition constants for the inactivation of DBH by each compound are then determined by conventional procedures such as the method of Kitz and Wilson, J. Biol. Chem. 237, 3245 (1962). When the compound shown in Table I was tested according to the above described procedure, the DBH inhibitory activity increased as a function of the time of incubation. The initial rate of decrease of activity increased with increasing concentration of inhibitor. The results in Table I indicate that β-methylene-2-furanethanamine is potent as illustrated by the rapid rate of inactivation (kinact) and low inhibition contant (KI).

hypertensive rats = experiment: Antihypertensive activity - in vivo (hypertensive rats, blood pressure monitored continuously)
Experimental: The ability of the compounds of this invention to lower blood pressure can be determined in vivo using hypertensive rats according to standard and well known procedures. The test compound is administered intraperitoneally (ip) or orally (po) to rats and the blood pressure monitored continuously. Since DBH is a major enzyme in the synthetic pathway of the catecholamines, it would be expected that the presence of an inhibitor would act to decrease the amount of catecholamines produced, and thereby have an antihypertensive effect.

C=C(CN)c1ccco1 [β-Methylene-2-Furanethanamine]
DBH inhibition, result in words (potency) ([1]; in words, from Table I): potent
Ki ([1]; inactivation of DBH, Kitz and Wilson method, pH 5, 20°-40° C., preferably 37° C., tyramine substrate): 8 mM
kinact ([1]; rate of inactivation of DBH, Kitz and Wilson method, pH 5, 20°-40° C., preferably 37° C., tyramine substrate): 6.67e-05 s⁻¹
Maximum % Change Mean Blood Pressure (hypertensive rats; 10 mg/kg (ip)): 18%
Maximum % Change Mean Blood Pressure (hypertensive rats; 30 mg/kg (ip)): 32%
